Common to all, as to assay: greenhouse pre-emergence herbicidal test
Common to all, as to format: in vivo
Conditions in all cases: 250 g/ha, scale 0 to 100

In one test the test system is Abutilon theophrasti. The procedure, abridged:
(§1)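 Compounds suspended or emulsified in water were sprayed onto loamy sand (about 3.0% humus) right after sowing; pots were hooded until rooting. Damage was scored on a 0–100 scale (100 = no emergence or complete aerial destruction, 0 = normal growth) after 2 to 4 weeks.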

In the next test the test system is Amaranthus retroflexus. Summed up:
(§2)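 Seeds sown in loamy sand (~3.0% humus); compounds suspended or emulsified in water, sprayed directly after sowing, pots covered until rooting. Kept at 10-25° C. or 20-35° C. by species for 2 to 4 weeks. Damage scored visually 0-100 (100 = no emergence or complete aerial destruction).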

A further test deals with Echinocloa crus-galli. Summed up:
as §2

Another test deals with Setaria faberi. The procedure, abridged: as §1

Drawing on patent US11992012B2, “Diaminotriazine compounds” (BASF SE, priority 2018, dated 2024), this text covers herbicidal activity for 31 compounds.

Structures are written as SMILES.

Regarding `CC(C)c1ccccc1COc1c(F)cc(F)c(F)c1Nc1nc(N)nc(C(C)(C)F)n1` [Example 208], the figures for the herbicidal activity in the test with Abutilon theophrasti and with Amaranthus retroflexus were 90% and 80%, respectively.

`Nc1nc(Nc2c(F)cccc2OCc2ccccc2)nc(C2(F)CCCCC2)n1` [Example 31]: the herbicidal activity in the test with Abutilon theophrasti came out at 85%; in the test with Amaranthus retroflexus it was 75%; in the test on Echinocloa crus-galli it was 100%.

In the case of `CC(C)(F)c1nc(N)nc(Nc2c(F)cccc2OCc2cc(F)cc(F)c2)n1` [Example 43], the herbicidal activity in the test with Abutilon theophrasti, with Amaranthus retroflexus and with Echinocloa crus-galli was 100% throughout.

Consider `COC(C)(C)c1nc(N)nc(Nc2c(F)c(F)cc(F)c2OCc2ccc(F)cc2)n1` [Example 250], for which the herbicidal activity in the test with Abutilon theophrasti, with Amaranthus retroflexus and with Echinocloa crus-galli was 100% in each case.

For `COC(C)c1nc(N)nc(Nc2c(F)c(F)cc(F)c2OCc2cccc(Cl)c2)n1` (stereo not shown) [Example 244], the figures for the herbicidal activity with Abutilon theophrasti, in the test on Setaria faberi and in the test with Amaranthus retroflexus were 85%, 75% and 75%, respectively.

`CC(C)(F)c1nc(N)nc(Nc2c(F)cccc2OCc2nc(C3CC3)no2)n1` [Example 42]: the values for the herbicidal activity in the test with Abutilon theophrasti and in the test on Amaranthus retroflexus were 80% and 100%, respectively.

Take `CC(C)(F)c1nc(N)nc(Nc2c(C#N)cccc2OCc2ccccc2)n1` [Example 128]: the herbicidal activity in the test on Abutilon theophrasti was found to be 90%; in the test with Setaria faberi it was 90%; in the test with Amaranthus retroflexus, 100%.

With `CC(C)(F)c1nc(N)nc(Nc2c(F)cccc2OCc2ncco2)n1` [Example 70], the herbicidal activity in the test on Abutilon theophrasti, in the test with Amaranthus retroflexus and in the test on Echinocloa crus-galli was 100% in each case.

In the case of `COC(C)(C)c1nc(N)nc(Nc2c(F)c(F)cc(F)c2OCc2ccccc2F)n1` [Example 248], the herbicidal activity in the test with Abutilon theophrasti, with Amaranthus retroflexus and in the test with Echinocloa crus-galli was 100% each time.

`COc1ccccc1COc1c(F)ccc(F)c1Nc1nc(N)nc(C(C)(C)F)n1` [Example 173]: the herbicidal activity in the test on Abutilon theophrasti, with Amaranthus retroflexus and with Echinocloa crus-galli was 100% throughout.

In the case of `COCc1ccccc1COc1c(F)cc(F)c(F)c1Nc1nc(N)nc(C(C)(C)F)n1` [Example 224], the herbicidal activity with Abutilon theophrasti is reported as 100%; with Setaria faberi, 100%; in the test on Echinocloa crus-galli it was 90%.

As for `CC(C)(Cl)c1nc(N)nc(Nc2c(F)c(F)cc(F)c2OCc2ccccc2)n1` [Example 246], the herbicidal activity in the test with Abutilon theophrasti, in the test with Amaranthus retroflexus and in the test with Echinocloa crus-galli was 100% throughout.

`Cc1c(F)cccc1COc1cccc(F)c1Nc1nc(N)nc(C(C)(C)F)n1` [Example 102]: the herbicidal activity in the test with Abutilon theophrasti turned out to be 85%; in the test with Setaria faberi it was 100%; with Echinocloa crus-galli, 100%.

On to `Cc1cccc(COc2cccc(F)c2Nc2nc(N)nc(C(C)(C)F)n2)c1` [Example 26], for which the results for the herbicidal activity with Abutilon theophrasti, in the test on Setaria faberi and in the test with Echinocloa crus-galli were 85%, 70% and 80%, respectively.

Regarding `COC(C)(C)c1nc(N)nc(Nc2c(F)c(F)cc(F)c2OCc2ccccc2Cl)n1` [Example 251], the values for the herbicidal activity in the test on Abutilon theophrasti, in the test with Setaria faberi and in the test with Echinocloa crus-galli were 98%, 100% and 95%, respectively.

For `COC(C)(C)c1nc(N)nc(Nc2c(F)cccc2OC(F)(F)c2cccc(F)c2)n1` [Example 131], the herbicidal activity stood at 90% in the test on Abutilon theophrasti, 90% with Setaria faberi and 85% with Amaranthus retroflexus.

`COC(C)(C)c1nc(N)nc(Nc2c(F)c(F)cc(F)c2OCc2cccc(F)c2)n1` [Example 249]: the herbicidal activity in the test on Abutilon theophrasti, with Setaria faberi and in the test with Echinocloa crus-galli was 100% in each case.

Consider `CC(C)(F)c1nc(N)nc(Nc2c(F)cccc2OCc2cccc(Cl)c2)n1` [Example 47], for which the figures for the herbicidal activity with Abutilon theophrasti, in the test with Amaranthus retroflexus and in the test on Echinocloa crus-galli were 100%, 100% and 80%, respectively.

Take `COC(C)c1nc(N)nc(Nc2c(F)c(F)cc(F)c2OCc2ccccc2Cl)n1` (stereo not shown) [Example 243]: the herbicidal activity in the test with Abutilon theophrasti, in the test on Setaria faberi and in the test with Echinocloa crus-galli was 85% throughout.

As to `CC(C)(F)c1nc(N)nc(Nc2c(F)ccc(Br)c2OCc2ccccc2)n1` [Example 223], the herbicidal activity is on record as 100% in the test with Abutilon theophrasti, 100% in the test on Setaria faberi and 95% in the test on Echinocloa crus-galli.

Turning to `CC(C)(F)c1nc(N)nc(Nc2c(F)c(F)cc(F)c2OCc2ccc(Cl)cc2)n1` [Example 207], the herbicidal activity in the test on Abutilon theophrasti is 90%; in the test on Setaria faberi it was 100%; in the test on Echinocloa crus-galli, 100%.

On to `COC(C)(C)c1nc(N)nc(Nc2c(F)c(F)cc(F)c2OCc2cccc(Cl)c2)n1` [Example 252], for which the herbicidal activity with Abutilon theophrasti is 100%; in the test with Setaria faberi, 100%; with Amaranthus retroflexus, 95%.

As to `CC(C)(F)c1nc(N)nc(Nc2c(F)c(F)cc(F)c2OCc2cccc(Cl)c2)n1` [Example 217], the values for the herbicidal activity with Abutilon theophrasti, with Setaria faberi and in the test on Echinocloa crus-galli were 98%, 100% and 100%, respectively.

Turning to `Cc1ccc(F)c(Nc2nc(N)nc(C(C)(C)F)n2)c1OCc1ccccc1` [Example 175], the results for the herbicidal activity in the test on Abutilon theophrasti, in the test with Setaria faberi and with Echinocloa crus-galli were 85%, 95% and 100%, respectively.

For the compound `CC(C)c1nc(N)nc(Nc2c(F)c(F)cc(F)c2OCc2ccccc2)n1` [Example 254], the herbicidal activity in the test with Abutilon theophrasti, with Setaria faberi and with Echinocloa crus-galli was 100% each time.

With `COc1ccccc1COc1ccc(F)c(F)c1Nc1nc(N)nc(C(C)(C)F)n1` [Example 198], the results for the herbicidal activity with Abutilon theophrasti, in the test with Setaria faberi and in the test on Echinocloa crus-galli were 98%, 100% and 100%, respectively.

For the compound `CC(C)(F)c1nc(N)nc(Nc2c(F)cccc2OCc2ccccc2F)n1` [Example 27], the herbicidal activity in the test on Abutilon theophrasti, in the test on Setaria faberi and in the test on Echinocloa crus-galli was 100% each time.

As for `COc1ccccc1COc1cccc(F)c1Nc1nc(N)nc(C(C)(C)F)n1` [Example 100], the herbicidal activity is given as 80% with Abutilon theophrasti, 100% in the test on Amaranthus retroflexus and 100% with Echinocloa crus-galli.

Regarding `CCCC(F)c1nc(N)nc(Nc2c(F)cccc2OCc2ccccc2)n1` (stereo not shown) [Example 77], the herbicidal activity in the test with Abutilon theophrasti is 80%; with Setaria faberi, 100%; in the test with Echinocloa crus-galli, 100%.

Consider `Cc1ccc(COc2c(F)ccc(F)c2Nc2nc(N)nc(C(C)(C)F)n2)cc1` [Example 141], for which the herbicidal activity in the test on Abutilon theophrasti amounted to 98%; in the test on Setaria faberi it was 100%; in the test with Echinocloa crus-galli it was 100%.

In the case of `CC(C)(C)c1nc(N)nc(Nc2c(F)c(F)cc(F)c2OCc2ccccc2)n1` [Example 200], the herbicidal activity in the test on Abutilon theophrasti, in the test with Setaria faberi and in the test on Echinocloa crus-galli was 100% in each case.
